Results on 16 compounds are retold here after patent US20150352108A1, “AMINO-PYRIMIDINE COMPOUNDS AS INHIBITORS OF TBK1 AND/OR IKK EPSILON” (Alzheimer's Institute of America, priority 2009, published 2015).

The target of one assay is T1, IKKε (Homo sapiens, UniProt Q14164).
T1 construct: His-tag; made in house; host or cells: Sf9 insect cells
T1 sequence (Q14164 1-716): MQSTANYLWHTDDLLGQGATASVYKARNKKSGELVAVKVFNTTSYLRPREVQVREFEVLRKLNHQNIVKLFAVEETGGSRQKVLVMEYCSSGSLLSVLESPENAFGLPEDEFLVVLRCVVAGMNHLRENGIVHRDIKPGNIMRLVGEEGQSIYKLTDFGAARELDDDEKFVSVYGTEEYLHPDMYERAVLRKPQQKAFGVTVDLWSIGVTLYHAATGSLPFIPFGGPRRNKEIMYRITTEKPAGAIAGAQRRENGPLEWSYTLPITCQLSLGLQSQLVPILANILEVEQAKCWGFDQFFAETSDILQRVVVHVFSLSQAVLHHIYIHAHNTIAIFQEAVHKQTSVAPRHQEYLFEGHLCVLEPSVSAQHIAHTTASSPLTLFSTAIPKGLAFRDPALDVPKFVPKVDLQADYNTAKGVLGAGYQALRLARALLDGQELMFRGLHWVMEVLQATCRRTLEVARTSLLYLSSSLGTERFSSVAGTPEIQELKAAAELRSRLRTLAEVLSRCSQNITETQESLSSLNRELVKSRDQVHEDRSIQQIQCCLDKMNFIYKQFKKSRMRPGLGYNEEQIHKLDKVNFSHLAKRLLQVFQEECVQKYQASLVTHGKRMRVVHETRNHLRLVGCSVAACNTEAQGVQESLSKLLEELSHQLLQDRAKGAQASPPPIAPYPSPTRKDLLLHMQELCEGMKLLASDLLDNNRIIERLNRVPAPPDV
In words: In-vitro IKKε kinase assay ([γ33]ATP filter-plate). The assay is classed as biochemical. In outline:
(§1)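 His-tagged Sf9-expressed kinases at 0.1 or 0.02 μg/ml (TBK1) and 0.1 or 0.015 μg/ml (IKKε) for normal and sensitized formats, with myelin basic protein or casein substrate. ATP was at 2×Km (60 μM TBK1, 32 μM IKKε) plus 0.3 μCi [γ33]ATP. Reactions ran 30-45 min, were captured on P-81 filters, and counts were normalized to DMSO.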

The subject of assay [1] is IKKε-mediated phosphorylation of IRF3. In words: In-situ phosphorylation of IRF3 (pIRF3 Ser396 ELISA) in HEK293T cells cotransfected with IRF3 and IKKε. The assay is classed as cell-based. The settings on record: Homo sapiens, HEK-293T. In outline: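 Cells for the IRF7 Western blots carried IRF7 and TBK1 plasmids, were seeded at 150,000/well, exposed to compound overnight and probed for pSer477/Ser479 IRF7. The ELISA readout used IRF3 + IKKε-cotransfected HEK293T at 20,000/well with 20 h treatment, quantifying pSer396 IRF3 relative to DMSO, plus a parallel CellTiter-Glo viability check.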
Background: ELISA stands for enzyme-linked immunosorbent assay.

Another assay has as its target T2, TBK1 (Homo sapiens, UniProt Q9UHD2).
T2 construct: His-tag; made in house; host or cells: Sf9 insect cells
T2 sequence (Q9UHD2 1-729): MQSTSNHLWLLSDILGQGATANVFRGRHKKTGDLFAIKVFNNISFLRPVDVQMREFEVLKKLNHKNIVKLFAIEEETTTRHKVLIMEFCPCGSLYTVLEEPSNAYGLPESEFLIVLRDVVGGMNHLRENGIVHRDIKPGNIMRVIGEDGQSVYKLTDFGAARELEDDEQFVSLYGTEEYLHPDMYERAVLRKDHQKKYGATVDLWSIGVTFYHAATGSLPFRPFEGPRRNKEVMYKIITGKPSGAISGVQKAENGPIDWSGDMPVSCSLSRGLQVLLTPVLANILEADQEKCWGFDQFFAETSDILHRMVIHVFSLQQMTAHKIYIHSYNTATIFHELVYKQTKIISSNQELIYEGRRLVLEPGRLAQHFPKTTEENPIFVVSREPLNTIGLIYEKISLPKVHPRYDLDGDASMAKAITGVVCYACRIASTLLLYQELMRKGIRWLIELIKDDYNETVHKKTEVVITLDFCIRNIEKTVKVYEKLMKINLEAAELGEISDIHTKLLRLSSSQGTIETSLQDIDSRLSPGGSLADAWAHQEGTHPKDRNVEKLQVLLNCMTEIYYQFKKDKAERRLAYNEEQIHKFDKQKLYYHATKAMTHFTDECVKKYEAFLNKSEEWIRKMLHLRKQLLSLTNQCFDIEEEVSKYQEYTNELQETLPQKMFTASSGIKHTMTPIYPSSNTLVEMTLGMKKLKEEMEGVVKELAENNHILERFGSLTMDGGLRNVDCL
In words: In-vitro TBK1 kinase assay ([γ33]ATP filter-plate). In kind it is biochemical. Put shortly: as §1

[2] abbreviates: text bins, read-out: IC50 for inhibition of the kinase activity of IKKε.
[3] abbreviates: HEK293T cells, 20 hours, text bins, read-out: IC50 for inhibition of the in-situ IKKε-mediated phosphorylation of IRF3.
[4] abbreviates: text bins, read-out: IC50 for inhibition of the kinase activity of TBK1.
[5] abbreviates: HEK293T cells in culture, Table 3, read-out: pIRF3 ELISA IC50.

One may read the IC50 as the midpoint of a concentration-inhibition curve.

Each structure is given as a SMILES string. Like-named read-outs stand apart in the source and are kept apart here.

As to `COc1ccc(Nc2nccc(-c3ccc(OC4CCOCC4)c(C#N)c3)n2)cc1OCC(N)=O` [Example 132, 2-[5-({4-[3-cyano-4-(tetrahydro-2H-pyran-4-yloxy)phenyl]pyrimidin-2-yl}amino)-2-methoxyphenoxy] acetamide], the IC50 was less than 5 nM on IKKε (setting [2]), 250 to 500 nM in assay [1] (setting [3]) and less than 10 nM at TBK1 (setting [4]).
`COc1cc(Nc2nccc(-c3ccc(OC4CCN(C(=O)CO)CC4)c(C#N)c3)n2)ccc1N1CCOCC1` [Example 59, 2-{[1-(hydroxyacetyl)piperidin-4-yl]oxy}-5-(2-{[3-methoxy-4-(morpholin-4-yl)phenyl]amino}pyrimidin-4-yl)benzonitrile]: the IC50 on IKKε (Table 3, read-out: IKKε IC50) was 0.2 nM; at IKKε (setting [2]), less than 5 nM; in assay [1] (setting [5]), 16.2 nM; in assay [1] (setting [3]) it was less than 100 nM; at TBK1 (Table 3, read-out: TBK1 IC50), 0.4 nM; on TBK1 (setting [4]), less than 10 nM.
As to `N#Cc1cc(-c2ccnc(Nc3ccc(CS(=O)(=O)NCCO)cc3)n2)ccc1OC1CCOCC1` [compound 402, 1-[4-({4-[3-Cyano-4-(tetrahydro-2H-pyran-4-yloxy)phenyl]pyrimidin-2-yl}amino)phenyl]-N-(2-hydroxyethyl) methanesulfonamide], the IC50 at IKKε (setting [2]) is less than 5 nM; in assay [1] (setting [3]), less than 100 nM; at TBK1 (setting [4]) it was less than 10 nM.
For `CC(C)(C)CC(=O)Nc1ccc(-c2ccnc(Nc3ccc(N4CCOCC4)cc3)n2)cc1C#N` [Example 202, N-[2-cyano-4-(2-{[4-(morpholin-4-yl)phenyl]amino}pyrimidin-4-yl)phenyl]-3,3-dimethylbutanamide] the same measures were 5 to 50 nM, 100 to 250 nM and less than 10 nM.
Take `N#Cc1cc(-c2ccnc(Nc3ccc(N4CCOCC4)cc3)n2)ccc1OC1CCN(S(N)(=O)=O)C1` (stereo not drawn) [Example 225, 3-[2-cyano-4-(2-{[4-(morpholin-4-yl)phenyl]amino}pyrimidin-4-yl)phenoxy]pyrrolidine-1-sulfonamide]: the half-inhibitory concentration (IC50) was less than 5 nM on IKKε (setting [2]), 100 to 250 nM in assay [1] (setting [3]) and less than 10 nM on TBK1 (setting [4]).
In the case of `COc1cc(Nc2nccc(-c3ccc(OC4CCOCC4)c(C#N)c3)n2)ccc1C(=O)N1CCCC1` [compound 613, 5-(2-{[3-Methoxy-4-(pyrrolidin-1-ylcarbonyl)phenyl]amino}pyrimidin-4-yl)-2-(tetrahydro-2H-pyran-4-yloxy)benzonitrile], the IC50 was 0.8 nM at IKKε (Table 3, read-out: IKKε IC50); less than 5 nM on IKKε (setting [2]); 19.9 nM in assay [1] (setting [5]); less than 100 nM in assay [1] (setting [3]); 0.4 nM at TBK1 (Table 3, read-out: TBK1 IC50); less than 10 nM on TBK1 (setting [4]).
Turning to `COc1cc(Nc2nccc(-c3ccc(O[C@@H]4CCN(C(=O)CO)C4)c(C#N)c3)n2)ccc1N1CCOCC1` [compound 588, 2-{[(3R)-1-(hydroxyacetyl)pyrrolidin-3-yl]oxy}-5-(2-{[3-methoxy-4-(morpholin-4-yl)phenyl]amino}pyrimidin-4-yl)benzonitrile], the IC50 is 0.3 nM at IKKε (Table 3, read-out: IKKε IC50); less than 5 nM at IKKε (setting [2]); 31 nM in assay [1] (setting [5]); less than 100 nM in assay [1] (setting [3]); 0.3 nM at TBK1 (Table 3, read-out: TBK1 IC50); less than 10 nM on TBK1 (setting [4]).
With `CCC(=O)Nc1ccc(-c2ccnc(Nc3ccc(N4CCOCC4)cc3)n2)cc1C#N` [compound 445, N-[2-Cyano-4-(2-{[4-(morpholin-4-yl)phenyl]amino}pyrimidin-4-yl)phenyl] propanamide], the IC50 at IKKε (setting [2]) is 5 to 50 nM; in assay [1] (setting [3]) it was 250 to 500 nM; on TBK1 (setting [4]), less than 10 nM.
Turning to `COc1cc(Nc2nccc(-c3ccc(OC4CCOCC4)c(C#N)c3)n2)ccc1C(=O)N1CCN2CCCC2C1` (stereo not drawn) [compound 501, 5-(2-{[4-(hexahydropyrrolo[1,2-a]pyrazin-2(1H)-ylcarbonyl)-3-methoxyphenyl]amino}pyrimidin-4-yl)-2-(tetrahydro-2H-pyran-4-yloxy)benzonitrile], the IC50 at IKKε (Table 3, read-out: IKKε IC50) is 1.1 nM; on IKKε (setting [2]), less than 5 nM; in assay [1] (setting [5]), 25.9 nM; in assay [1] (setting [3]), less than 100 nM; at TBK1 (Table 3, read-out: TBK1 IC50), 0.1 nM; on TBK1 (setting [4]), less than 10 nM.
In the case of `COc1cc(-c2ccnc(Nc3ccc(N4CCOCC4)cc3)n2)cc(C#N)c1OC1CCNCC1` [compound 440, 3-Methoxy-5-(2-{[4-(morpholin-4-yl)phenyl]amino}pyrimidin-4-yl)-2-(piperidin-4-yloxy)benzonitrile], the results for the half-inhibitory concentration (IC50) (at IKKε (setting [2]); in assay [1] (setting [3]); on TBK1 (setting [4])) were less than 5 nM, less than 100 nM and less than 10 nM, respectively.
The corresponding values for `COc1ccc(-c2ccnc(Nc3ccc(N4CCOCC4)c(OC)c3)n2)cc1C#N` [Example 157, 2-Methoxy-5-(2-{[3-methoxy-4-(morpholin-4-yl)phenyl]amino}pyrimidin-4-yl)benzonitrile] are less than 5 nM, 250 to 500 nM and less than 10 nM.
With `COc1cc(Nc2nccc(-c3ccc(OC4CCOCC4)c(C#N)c3)n2)ccc1OCCCN1CCOCC1` [Example 31, 5-[2-({3-methoxy-4-[3-(morpholin-4-tl)propoxy]phenyl}amino)pyrimidin-4-yl]-2-(tetrahydro-2H-pyran-4-yloxy)benzonitrile], the IC50 on IKKε (setting [2]) is less than 5 nM; in assay [1] (setting [3]), less than 100 nM; at TBK1 (setting [4]), less than 10 nM.
For `N#Cc1cc(-c2ccnc(Nc3ccc(N4CCOCC4)cc3)n2)ccc1OCC1CCNCC1` [Example 72, 5-(2-{[4-(morpholin-4-yl)phenyl]amino}pyrimidin-4-yl)-2-(piperidin-4-ylmethoxy) benzonitrile] the same measures were less than 5 nM, 250 to 500 nM and 10 to 100 nM.
Turning to `CN1CCC(NS(=O)(=O)c2ccc(Nc3nccc(-c4ccc(OC5CCOCC5)c(C#N)c4)n3)cc2)CC1` [compound 371, 4-({4-[3-cyano-4-(tetrahydro-2H-pyran-4-yloxy)phenyl]pyrimidin-2-yl}amino)-N-(1-methylpiperidin-4-yl)benzenesulfonamide], the IC50 at IKKε (setting [2]) was less than 5 nM; in assay [1] (setting [3]), 100 to 250 nM; on TBK1 (setting [4]), less than 10 nM.
For `N#Cc1cc(-c2ccnc(Nc3ccc(CS(=O)(=O)N4CCOCC4)cc3)n2)ccc1OC1CCOCC1` [compound 404, 5-[2-({4-[(Morpholin-4-ylsulfonyl)methyl]phenyl}amino)pyrimidin-4-yl]-2-(tetrahydro-2H-pyran-4-yloxy)benzonitrile] the same measures were less than 5 nM, less than 100 nM and less than 10 nM.
Take `N#Cc1cc(-c2ccnc(Nc3ccc(CN4CCOCC4)cc3)n2)ccc1OC1CCOCC1` [compound 510, 5-(2-{[4-(morpholin-4-ylmethyl)phenyl]amino}pyrimidin-4-yl)-2-(tetrahydro-2H-pyran-4-yloxy)benzonitrile]: the IC50 on IKKε (setting [2]) was less than 5 nM; in assay [1] (setting [3]) it was less than 100 nM; on TBK1 (setting [4]), less than 10 nM.
